Experimental findings from patent US8865734B2 (priority 2010, dated 2014) are described below.

The melting point is the temperature, or range, at which the solid turns liquid.

The test system of data set [1] is in vitro grown Mycobacteria (M. tuberculosis). The experiment in a line: QUM: Quantification of in vitro grown Mycobacteria (in vitro growth fluorescence assay). The note with it: Mycobacterium tuberculosis; MIC, 80% bacterial growth inhibition; in vitro growth; read-out: QUM. It counts as cell-based. In a few lines:
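Mycobacterium tuberculosis grown in vitro was quantified by fluorescence across compound dose responses. MIC is defined as the minimum concentration producing 80% growth inhibition.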

Data set [2] has as its system M. tuberculosis inside the host macrophage. The experiment in a line: QIM: Quantification of Intracellular Mycobacteria (intracellular growth assay, phenotypic cell-based). The note with it: Mycobacterium tuberculosis; MIC, 80% bacterial growth inhibition; intracellular growth; read-out: QIM. Summed up: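 Phenotypic high-content assay measuring M. tuberculosis multiplication inside host macrophages, run as dose response. MIC is the minimum compound concentration giving 80% bacterial growth inhibition.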

Molecules are shown by their SMILES. ≈ marks a conversion by molar mass, not a printed value.

In the case of `CCc1nc2ccc(Cl)cn2c1C(=O)NCc1ccc(C(F)(F)F)cc1` [Compound 147, 6-Chloro-2-ethyl-N-(4-(trifluoromethyl)benzyl)imidazo[1,2-a]pyridine-3-carboxamide], the melting point fell in the range of 179 to 180 °C. In addition, in data set [1], the MIC was less than 1 µM. Besides, the MIC in data set [2] was less than 1 µM.
For `CCc1nc2cc(Cl)ccn2c1C(=O)NCc1ccc(C(F)(F)F)cc1` [Compound 148, 7-Chloro-2-ethyl-N-(4-(trifluoromethyl)benzyl)imidazo[1,2-a]pyridine-3-carboxamide], the melting point fell in the range of 196.2 to 196.9 °C. For the same compound, the MIC in data set [1] was less than 1 µM. The MIC in data set [2] was less than 1 µM.
`CCc1nc2cnccn2c1C(=O)NCc1ccc(OC(F)(F)F)cc1` [Compound 155, 2-Ethyl-N-(4-(trifluoromethoxy)benzyl)imidazo[1,2-a]pyrazine-3-carboxamide] displayed a melting point of 176 to 177 °C. Besides, the MIC in data set [1] is more than 20 µM. For the same compound, the MIC in data set [2] was more than 20 µM.
Compound `CCc1nc2c[n+]([O-])ccn2c1C(=O)NCc1ccc(OC(F)(F)F)cc1` [Compound 156, 2-Ethyl-3-((4-(trifluoromethoxy)benzyl)carbamoyl)imidazo[1,2-a]pyrazine 7-oxide] came in with a melting point of 215 to 216 °C. The MIC in data set [1] was more than 20 µM. In data set [2], the MIC is more than 20 µM.
For the compound `CCc1nc2ccc(Cl)cn2c1C(=O)NCCc1ccc(OC)cc1` [Compound 157, 6-Chloro-2-ethyl-N-(4-methoxyphenethyl)imidazo[1,2-a]pyridine-3-carboxamide], the melting point is 129 to 130 °C. Further, the MIC in data set [1] was less than 1 µM. Further, in data set [2], the MIC is less than 1 µM.
`CCc1nc2ccc(Cl)cn2c1C(=O)NCCc1ccc(Cl)cc1` [Compound 158, 6-Chloro-N-(4-chlorophenethyl)-2-ethylimidazo[1,2-a]pyridine-3-carboxamide] gave a melting point of 158 to 159 °C. The MIC in data set [1] is less than 1 µM. Further, the MIC in data set [2] was less than 1 µM.
The compound `CCc1nc2c[n+]([O-])ccn2c1C(=O)NCc1ccc(-c2ccc(Cl)cc2)cc1` [Compound 160, 3-(((4′-Chloro-[1,1′-biphenyl]-4-yl)methyl)carbamoyl)-2-ethylimidazo[1,2-a]pyrazine 7-oxide] gave a melting point of 238 °C. In addition, the MIC in data set [1] was more than 20 µM. In data set [2], the MIC was more than 20 µM.
In turn, `CCc1nc2ccc(Cl)cn2c1C(=O)OCc1ccc(-c2ccccc2)cc1` [Compound 161, [1,1′-Biphenyl]-4-ylmethyl 6-chloro-2-ethylimidazo[1,2-a]pyridine-3-carboxylate] came in with a melting point of 122.3 to 123 °C. Moreover, in data set [1], the MIC was less than 1 µM. Besides, in data set [2], the MIC was less than 1 µM.
For `CCc1nc2cc(Cl)ccn2c1C(=O)NCc1ccc(N2CCC(Oc3ccc(F)cc3)CC2)cc1` [Compound 167, 7-Chloro-2-ethyl-N-(4-(4-(4-fluorophenoxy)piperidin-1-yl)benzyl)imidazo[1,2-a]pyridine-3-carboxamide], the melting point lay in the range of 138 to 139 °C. Moreover, in data set [1], the MIC is less than 1 µM. Moreover, in data set [2], the MIC was less than 1 µM.
As to `CCc1nc2cc(Cl)ccn2c1C(=O)NCc1ccc(N2CCN(Cc3ccc(F)cc3)CC2)cc1` [Compound 172, 7-Chloro-2-ethyl-N-(4-(4-(4-fluorobenzyl)piperazin-1-yl)benzyl)imidazo[1,2-a]pyridine-3-carboxamide], the melting point fell in the range of 141 to 142 °C. The MIC in data set [1] is less than 1 µM. For the same compound, the MIC in data set [2] was less than 1 µM.
Compound `CCc1nc2ccc(Cl)cn2c1C(=O)NCc1ccc(N2CCN(Cc3ccc(OC(F)(F)F)cc3)CC2)cc1` [Compound 173, 6-Chloro-2-ethyl-N-(4-(4-(4-(trifluoromethoxy)benzyl)piperazin-1-yl)benzyl)imidazo[1,2-a]pyridine-3-carboxamide] came in with a melting point of 138.1 to 138.7 °C. In addition, the MIC in data set [1] is less than 1 µM. In data set [2], the MIC was less than 1 µM.
In turn, `CCc1nc2cc(Cl)ccn2c1C(=O)NCc1ccc(N2CCN(Cc3ccc(OC(F)(F)F)cc3)CC2)cc1` [Compound 174, 7-Chloro-2-ethyl-N-(4-(4-(4-(trifluoromethoxy)benzyl)piperazin-1-yl)benzyl)imidazo[1,2-a]pyridine-3-carboxamide] showed a melting point of 137.1 to 137.6 °C. The MIC in data set [1] was less than 1 µM. Further, the MIC in data set [2] was less than 1 µM.
Regarding `CCc1nc2cc(Cl)ccn2c1C(=O)NCc1ccc(N2CCN(c3ccc(F)cc3)CC2)cc1` [Compound 176, 7-Chloro-2-ethyl-N-(4-(4-(4-fluorophenyl)piperazin-1-yl)benzyl)imidazo[1,2-a]pyridine-3-carboxamide], the melting point fell in the range of 212 to 213 °C. Further, the MIC in data set [1] was less than 1 µM. In addition, the MIC in data set [2] was less than 1 µM.
As for `CCc1nc2ccc(Cl)cn2c1C(=O)NCc1ccc(N2CCN(c3ccc(OC(F)(F)F)cc3)CC2)cc1` [Compound 178, 6-Chloro-2-ethyl-N-(4-(4-(4-(trifluoromethoxy)phenyl)piperazin-1-yl)benzyl)imidazo[1,2-a]pyridine-3-carboxamide], the melting point is 206.5 to 207 °C. The MIC in data set [1] is less than 1 µM. Besides, the MIC in data set [2] was less than 1 µM.
For the compound `CCc1nc2cc(Cl)ccn2c1C(=O)NCc1ccc(N2CCN(c3ccc(OC(F)(F)F)cc3)CC2)cc1` [Compound 179, 7-Chloro-2-ethyl-N-(4-(4-(4-(trifluoromethoxy)phenyl)piperazin-1-yl)benzyl)imidazo[1,2-a]pyridine-3-carboxamide], the melting point fell in the range of 216.3 to 217 °C. Also, the MIC in data set [1] is less than 1 µM. The MIC in data set [2] was less than 1 µM.
Take `CCc1nc2ccccn2c1C(=O)NCc1ccc(N2CCN(c3ccc(OC(F)(F)F)cc3)CC2)cc1` [Compound 181, 2-Ethyl-N-(4-(4-(4-(trifluoromethoxy)phenyl)piperazin-1-yl)benzyl)imidazo[1,2-a]pyridine-3-carboxamide]: the melting point was 178 to 179 °C. Also, the MIC in data set [1] is less than 1 µM. Further, in data set [2], the MIC is less than 1 µM.
Regarding `CCc1nc2ccc(Cl)cn2c1C(=O)N(C)Cc1ccc(N2CCN(c3ccc(F)cc3)CC2)cc1` [Compound 182, 6-Chloro-2-ethyl-N-(4-(4-(4-fluorophenyl)piperazin-1-yl)benzyl)-N-methylimidazo[1,2-a]pyridine-3-carboxamide], the melting point was in the range of 148 to 149 °C. In data set [1], the MIC was less than 1 µM. The MIC in data set [2] is 1 to 20 µM (≈ 0.506 to 10.1 µg/mL).
Taken in the same sequence, the figures for `CCc1nc2cc(Cl)ccn2c1C(=O)NCc1ccc(Oc2ccc(OC(F)(F)F)cc2)cc1` [Compound 186, 7-Chloro-2-ethyl-N-(4-(4-(trifluoromethoxy)phenoxy)benzyl)imidazo[1,2-a]pyridine-3-carboxamide] were 141 to 142 °C, less than 1 µM and less than 1 µM.
Compound `CCc1nc2ccc(Cl)cn2c1C(=O)NCc1ccc(Oc2ccc(F)cc2)cc1` [Compound 187, 6-Chloro-2-ethyl-N-(4-(4-fluorophenoxy)benzyl)imidazo[1,2-a]pyridine-3-carboxamide] came in with a melting point of 168 to 169 °C. Further, in data set [1], the MIC was less than 1 µM. Besides, the MIC in data set [2] is less than 1 µM.
Turning to `CCc1nc2ccc(Cl)cn2c1C(=O)NCc1ccc(Oc2ccc(Cl)cc2)cc1` [Compound 190, 6-Chloro-N-(4-(4-chlorophenoxy)benzyl)-2-ethylimidazo[1,2-a]pyridine-3-carboxamide], the melting point fell in the range of 159 to 160.7 °C. For the same compound, the MIC in data set [1] was less than 1 µM. In addition, in data set [2], the MIC is less than 1 µM.
`CCc1nc2cc(Cl)ccn2c1C(=O)NCc1ccc(Oc2ccc(Cl)cc2)cc1` [Compound 191, 7-Chloro-N-(4-(4-chlorophenoxy)benzyl)-2-ethylimidazo[1,2-a]pyridine-3-carboxamide] had a melting point of 167.1 to 167.9 °C. The MIC in data set [1] is less than 1 µM. Also, the MIC in data set [2] was less than 1 µM.
The compound `CCc1nc2cc(Cl)ccn2c1C(=O)NCc1ccc(Oc2ccc(F)cc2)nc1` [Compound 193, 7-Chloro-2-ethyl-N-((6-(4-fluorophenoxy)pyridin-3-yl)methyl)imidazo[1,2-a]pyridine-3-carboxamide] came in with a melting point of 167 to 167.6 °C. The MIC in data set [1] was less than 1 µM. In data set [2], the MIC was less than 1 µM.
In the case of `CCc1nc2ccc(Cl)cn2c1C(=O)NCc1ccc(Oc2ccc(OC(F)(F)F)cc2)nc1` [Compound 194, 6-Chloro-2-ethyl-N-((6-(4-(trifluoromethoxy)phenoxy)pyridin-3-yl)methyl)imidazo[1,2-a]pyridine-3-carboxamide], the melting point lay within 154 to 155 °C. The MIC in data set [1] lay in the range of 1 to 20 µM (≈ 0.491 to 9.82 µg/mL). In data set [2], the MIC is less than 1 µM.
In the same order, the values of `CCc1nc2ccc(Cl)cn2c1C(=O)OCc1ccc(Oc2ccccc2)cc1` [Compound 196, 4-Phenoxybenzyl 6-chloro-2-ethylimidazo[1,2-a]pyridine-3-carboxylate] are 123.3 to 123.8 °C, 1 to 20 µM (≈ 0.407 to 8.14 µg/mL) and less than 1 µM.
Taken in the same sequence, the figures for `CCc1nc2ccc(Cl)cn2c1C(=O)NCc1ccc(N2CC(C)OC(C)C2)cc1` (stereo not drawn) [Compound 209, 6-Chloro-N-(4-(2,6-dimethylmorpholino)benzyl)-2-ethylimidazo[1,2-a]pyridine-3-carboxamide] were 176 to 177 °C, less than 1 µM and less than 1 µM.
In the same order, the values of `CCc1nc2cc(Cl)ccn2c1C(=O)NCc1ccc(N2CC(C)OC(C)C2)cc1` (stereo not drawn) [Compound 210, 7-Chloro-N-(4-(2,6-dimethylmorpholino)benzyl)-2-ethylimidazo[1,2-a]pyridine-3-carboxamide] are 165 to 166 °C, 1 to 20 µM (≈ 0.427 to 8.54 µg/mL) and less than 1 µM.
